# Experimental data published in patent US11324798B2, “Materials and methods for treatment of inflammation” (CYTOGEL PHARMA, LLC, priority 2010, dated 2022).
# Values joined by “and” are separate entries in the source; they are usually repeats but may differ in a detail not shown here. Identical values can stand only once. “Also recorded” adds a separate entry of the source.
# Legend:
# [1] = system: mustard oil-induced acute neurogenic inflammation in the mouse ear; assay: 5% mustard oil-induced acute neurogenic ear swelling of the mouse, micrometry (Example 2); type: in vivo; details: for AUC of time course of percentage ear swelling: 3 h, control 55.29±4.91
# Experimental: (§1) For the in vivo rat and mouse experiments, 5.5 ml of the 1 mg/ml stock solution of CYT-1010 was prepared freshly every experimental day with 20% HPCD dissolved in sterile distilled water. […] The vehicle was 20% HPCD dissolved in sterile distilled water. Further dilutions of the compound for the smaller administered doses were made with this vehicle, the 500 μg/ml and 100 μg/ml concentrations looked opalescent and the lower concentrations were clear. In rats 0.1 ml/100 g, in mice 0.1 ml/10 g volumes were administered i.v. 10 min before the induction of the inflammation.
# Mice were anaesthesized with urethane (1.2 g/kg i.p.) to achieve a long-lasting deep anaesthesia and minimize respiratory depression. Ten μl of 5% mustard oil dissolved in paraffin oil was smeared on both sides of both ears. Mustard oil in this concentration selectively activates Transient Receptor Potential A1 (TRPA1) on capsaicin-sensitive peptidergic sensory nerves and induces the release of sensory neuropeptides. The released CGRP and substance P (SP) in the innervated area evoke vasodilatation and plasma protein extravasation, collectively called as acute neurogenic inflammation.
# CYT-1010 (1, 10, 100, 500 and 1000 μg/kg; 0.1 ml/10 g from the 0.1, 1, 10, 50 and 100 μg/ml solutions) was administered i.v. 5 min before the induction of the inflammation by mustard oil smearing. Mice in the control group were treated with the same volume of the vehicle, 20% hydroxypropyl-β-cyclodextrin dissolved in sterile distilled water. The experimental protocol is also illustrated in FIG. 1.
# There were 8 mice in each CYT-1010-treated experimental group, and 9 in the vehicle-treated control group. 49 male CD1 mice (25-35 g) altogether were divided into 6 experimental groups: Group 1: vehicle-treated controls (n=9); Group 2: 1 μg/kg CYT-1010 (n=8); Group 3: 10 μg/kg CYT-1010 (n=8); Group 4: 100 μg/kg CYT-1010 (n=8); Group 5: 500 μg/kg CYT-1010 (n=8); and Group 6: 1000 μg/kg CYT-1010 (n=8).
# This study was undertaken in blocks with 12-13 mice per occasion. The whole set of data was obtained during 4 days. There were 2 or 3 solvent-treated rats every day and the remaining 12 animals were randomised to receive each treatment.
# The diameter of the ear was measured with an engineers' micrometer before the treatment and 4 times during the 3 h-examination period (20 min, 1 h, 2 h and 3 h). Oedema was expressed in % compared to the initial control values (Banvolgyi et al., 2004, 2005; Borzsei et al., 2008). Each of these publications is incorporated herein by reference in its entirety.
# (§2) Results are expressed as the mean±s.e.m. and analyzed for statistical significance with one-way ANOVA followed by Dunnett post-hoc test when the data were compared to the control group. In the rat in vivo studies, multiple comparisons were also made with Bonferroni's modified t-test to compare the effects of the different doses to each other. *p<0.05 was considered to be significant.
# [2] = Appearance of CYT-1010 preparations in 20% HPCD; type: physicochemical
# Experimental: as §1
# Stock solution of the 100 μg/ml concentration of CYT-1010 (5.5 ml) was prepared fresh every experimental day with 20% hydroxypropyl-βcyclodextrin (HPCD) dissolved in sterile distilled water, shaken properly and sonicated. The vehicle was 20% HPCD dissolved in sterile distilled water. Further dilutions of the compound for the smaller administered doses were made with this vehicle. The applied concentrations were filtered through a 0.2 μm sterile teflon filter. […] The lower concentrations looked clear immediately. Non-filtered solutions were administered in the same concentrations in the parallel groups for comparison. Three doses of both the filtered and non-filtered CYT-1010 solutions (1, 10 and 100 μg/kg; 0.1 ml/10 g from the 0.1, 1 and 10 μg/ml solutions) were administered i.v. 5 min before the induction of the inflammation. Animals of the control group were treated with the same volume of the HPCD after or without the same filtration procedure.
# [3] = system: mustard oil-induced acute neurogenic inflammation in the paw skin of the rat; assay: 1% mustard oil-induced plasma protein extravasation in the acutely denervated rat hindpaw skin, Evans blue leakage; type: in vivo; details: for Evans blue leakage in the rat hindpaw skin / Evans blue leakage in the rat hindpaw skin, Mean: 1% mustard oil; for Evans blue leakage in the rat hindpaw skin: individual paws (rats 1-8, left/right)
# Experimental: as §1
# Both hindlegs of the rats were acutely denervated (the sciatic and the saphenous nerves were cut 30 min before the induction of inflammation) under deep sodium thiopental (50 mg/kg i.p.) anaesthesia to avoid central reflexes. Acute neurogenic inflammation in the dorsal skin of the hindpaws was evoked by topical application of 1% mustard oil (allylisothiocianante) dissolved in paraffin oil. Mustard oil in concentrations below 5% selectively stimulates TRPA1 ion channels on capsaicin-sensitive peptidergic nerves and induces the release of pro-inflammatory sensory neuropeptides such as CGRP and substance P, which cause vasodilation and plasma protein extravasation in the innervated area.
# CYT-1010 (1, 10, 100 and 1000 μg/kg; 0.1 ml/100 g from the 1, 10, 100 and 1000 μg/ml solutions) was administered i.v. 5 min before the induction of the inflammation by mustard oil smearing. Rats in the control group were treated with the same volume of the vehicle, 20% hydroxypropyl-β-cyclodextrin (dissolved in sterile distilled water). The experimental protocol is also illustrated in FIG. 2.
# 40 male Wistar rats (220-260 g) altogether were divided into 5 experimental groups: Group 1: 8 vehicle-treated controls (n=8); Group 2: 1 μg/kg CYT-1010 (n=8); Group 3: 10 μg/kg CYT-1010 (n=8); Group 4: 100 μg/kg CYT-1010 (n=8); and Group 5: 1000 μg/kg CYT-1010 (n=8).
# This study was undertaken in blocks with 10 rats per occasion. The whole set of data was obtained during 4 days, and there were rats of each group every day.
# Extravasation of plasma albumin was measured by the Evans blue leakage method. Evans blue (50 mg/kg) was injected i.v. and neurogenic inflammation was induced 10 min later. Rats were killed by exsanguination 20 min after mustard oil application. The skin of the hindpaws was removed and the extravasated dye was extracted with formamide for 72 h at room temperature for photometric determination at 620 nm. The amount of the accumulated Evans blue, which quantitatively correlates with the intensity of plasma extravasation, was expressed as dye/g wet tissue (Szolcsányi and Barthó 1981; Helyes et al., 1997, 2001, 2006). Each of these publications is incorporated herein by reference in its entirety.
# as §2
smiles,measurement,setting,value
"NC(Cc1ccc(O)cc1)C(=O)NC1CCCCNC(=O)C(Cc2ccccc2)NC(=O)C(Cc2c[nH]c3ccccc23)NC1=O [CYT-1010, H-Tyr-c-[D-Lys-Trp-Phe]]",AUC of time course of percentage ear swelling,"[1]; 1 μg/kg i.v., P<0.05",28.99±4.60 units
same,Effect on mustard oil-induced acute neurogenic ear swelling,"[1]; 1 μg/kg, 10 μg/kg and 100 μg/kg i.v.",significantly reduced
same,AUC of time course of percentage ear swelling,"[1]; 10 μg/kg i.v., P<0.01",28.15±3.42 units
same,AUC of time course of percentage ear swelling,"[1]; 100 μg/kg i.v., P<0.01",26.55±5.51 units
same,AUC of time course of percentage ear swelling,"[1]; 500 μg/kg i.v., NS",52.24±9.70 units
same,AUC of time course of percentage ear swelling,"[1]; 1000 μg/kg i.v., NS",37.25±5.72 units
same,Effect on mustard oil-induced ear swelling,"[1]; 1, 10 and 100 μg/kg i.v., at 1 hour",significant anti-edema action
same,Significant inhibition of mustard oil-induced ear swelling,"[1]; 1-1000 μg/kg i.v., 20 minutes post induction",none of the examined CYT-1010 doses
same,Anti-edema effect on the mouse ear,"[1]; 1-1000 μg/kg i.v., throughout a 3-h period",significant anti-edema effect
same,Inhibitory action on ear swelling,"[1]; 10 and 100 μg/kg i.v., both later time points (2 h, 3 h)",statistically significant
same,Effect on mustard oil-induced ear swelling,[1]; 500 and 1000 μg/kg i.v.,did not influence ear swelling
same,Appearance of preparation,"[2]; 100 μg/ml in 20% HPCD, directly after preparation (Example 4)",opalescent
same,Appearance of preparation,"[2]; 100 μg/ml in 20% HPCD, on standing at 4° C. (Example 4)",cleared up 1 hour later
same,Appearance of preparation,[2]; 500 μg/ml and 100 μg/ml in 20% HPCD,opalescent
same,Appearance of preparation,[2]; 1 mg/ml stock in 20% HPCD in sterile distilled water,milky white micro-suspension
same,Appearance of preparation,[2]; lower concentrations (below 100 μg/ml) in 20% HPCD,clear
same,Inhibition of mustard oil-induced plasma protein extravasation,[3]; 1 μg/kg i.v. (smallest/lowest dose),~60%
same,Evans blue leakage in the rat hindpaw skin,[3]; 1 μg/kg i.v.,63.04 μg/g wet skin and 42.27 μg/g wet skin and 3.46 μg/g wet skin and 41.04 μg/g wet skin and 31.69 μg/g wet skin and 46.87 μg/g wet skin and 49.44 μg/g wet skin and 47.62 μg/g wet skin and 77.51 μg/g wet skin and 53.72 μg/g wet skin and 48.91 μg/g wet skin and 59.80 μg/g wet skin and 65.26 μg/g wet skin and 48.52 μg/g wet skin and 44.06 μg/g wet skin and 33.73 μg/g wet skin
same,"Evans blue leakage in the rat hindpaw skin, Mean",[3]; 1 μg/kg i.v.,47.31 μg/g wet skin
same,Evans blue leakage in the rat hindpaw skin,[3]; 10 μg/kg i.v.,87.67 μg/g wet skin and 79.89 μg/g wet skin and 77.63 μg/g wet skin and 87.14 μg/g wet skin and 108.49 μg/g wet skin and 73.59 μg/g wet skin and 65.69 μg/g wet skin and 78.05 μg/g wet skin and 94.66 μg/g wet skin and 36.25 μg/g wet skin and 51.07 μg/g wet skin and 41.10 μg/g wet skin and 46.38 μg/g wet skin and 91.18 μg/g wet skin and 61.48 μg/g wet skin and 77.24 μg/g wet skin
same,"Evans blue leakage in the rat hindpaw skin, Mean",[3]; 10 μg/kg i.v.,72.34 μg/g wet skin
same,Evans blue leakage in the rat hindpaw skin,[3]; 100 μg/kg i.v.,71.20 μg/g wet skin and 54.84 μg/g wet skin and 83.92 μg/g wet skin and 49.09 μg/g wet skin and 54.86 μg/g wet skin and 59.74 μg/g wet skin and 88.54 μg/g wet skin and 56.89 μg/g wet skin and 75.00 μg/g wet skin and 56.81 μg/g wet skin and 63.41 μg/g wet skin and 68.93 μg/g wet skin and 49.74 μg/g wet skin and 52.19 μg/g wet skin and 49.21 μg/g wet skin and 80.28 μg/g wet skin
same,"Evans blue leakage in the rat hindpaw skin, Mean",[3]; 100 μg/kg i.v.,63.42 μg/g wet skin
same,Evans blue leakage in the rat hindpaw skin,[3]; 1000 μg/kg i.v.,55.85 μg/g wet skin and 66.07 μg/g wet skin and 85.40 μg/g wet skin and 79.34 μg/g wet skin and 154.03 μg/g wet skin and 74.05 μg/g wet skin and 88.00 μg/g wet skin and 62.92 μg/g wet skin and 55.80 μg/g wet skin and 67.62 μg/g wet skin and 57.47 μg/g wet skin and 37.45 μg/g wet skin and 46.10 μg/g wet skin and 76.56 μg/g wet skin and 54.68 μg/g wet skin and 63.41 μg/g wet skin
same,"Evans blue leakage in the rat hindpaw skin, Mean",[3]; 1000 μg/kg i.v.,70.30 μg/g wet skin
same,Effect on mustard oil-induced plasma protein extravasation in the rat skin,"[3]; 1, 10, 100 and 1000 μg/kg i.v. pretreatment",significant inhibition; also recorded: significant anti-inflammatory effect; also recorded: significantly decreased
